The values below are quoted from earlier work in article PMC9410468 (Marine Drugs, 2022).

For the data set, the system named is rats. The following applies: rats; selective α3β4 nAChR antagonists; cited from earlier work. From the text: In the mammalian brain, the medial habenula (MHB) expresses high nAChR levels. Recently, α3-containing nAChRs present in the medial habenula have attracted substantial attention because of their potential role in influencing nicotine addiction. In addition, recent studies have shown that the gene polymorphism of the α3 and β4 subunits in vivo are related to nicotine addiction and drug abuse. The α3β4 nAChR subtype is mainly located in the MHB, […] (IPN), and fasciculus retroflexus (FR) of the rat brain. In addition, it is also expres ...

SMILES strings stand for the structures.

Turning to `COCC[C@H]1CC2CN3CCc4c([nH]c5ccccc45)[C@](C(=O)OC)(C2)[C@H]13` [18-methoxycoronaridine (18-MC), 18-methoxycoronaridine], the “effect on nicotine self-administration (in words)” value is on record as “reduce nicotine self-administration in rats”.
